Experimental data: the NIST ThermoML archive (doi:10.1016/j.jct.2009.08.002)

Assay: molar heat capacity at constant pressure; xn = mol fraction of the nth substance listed
Conditions: Liquid, Large sample (1 g) DSC

CCCCCCCC[n+]1ccn(C)c1.F[B-](F)(F)F [1-methyl-3-octylimidazolium tetrafluoroborate] + CC#N
molar heat capacity at constant pressure [J/K/mol]
Conditions | x1 = 0.0359 | x1 = 0.1135 | x1 = 0.1694 | x1 = 0.2341 | x1 = 0.3023 | x1 = 0.4285 | x1 = 0.5437 | x1 = 0.6829 | x1 = 0.8425 | x1 = 1
283.15 K | 103.7 | 133.5 | 155.3 | 181 | 208.3 | 259.1 | 305.8 | 362.2 | 426.5 | 489.8
288.15 K | 104 | 133.9 | 155.9 | 181.7 | 209.1 | 260.4 | 307.3 | 364.1 | 428.9 | 492.6
293.15 K | 104.4 | 134.4 | 156.5 | 182.4 | 210 | 261.7 | 308.9 | 366 | 431.3 | 495.4
298.15 K | 104.8 | 135 | 157.1 | 183.2 | 210.9 | 263 | 310.5 | 368 | 433.7 | 498.3
303.15 K | 105.2 | 135.5 | 157.8 | 184 | 211.9 | 264.3 | 312.2 | 370.1 | 436.2 | 501.2
308.15 K | 105.6 | 136.1 | 158.5 | 184.9 | 212.9 | 265.7 | 313.9 | 372.2 | 438.7 | 504.1
313.15 K | 106.1 | 136.7 | 159.2 | 185.7 | 213.9 | 267.1 | 315.7 | 374.4 | 441.3 | 507.1
318.15 K | 106.5 | 137.4 | 159.9 | 186.6 | 215.1 | 268.5 | 317.5 | 376.7 | 443.9 | 510.2
323.15 K | 107 | 138 | 160.7 | 187.5 | 216.2 | 269.9 | 319.3 | 379 | 446.6 | 513.3

CCCCCCn1cc[n+](C)c1.F[B-](F)(F)F [1-hexyl-3-methylimidazolium tetrafluoroborate] + CC#N
molar heat capacity at constant pressure [J/K/mol]
Conditions | 283.15 K | 288.15 K | 293.15 K | 298.15 K | 303.15 K | 308.15 K | 313.15 K | 318.15 K | 323.15 K
x1 = 0.0648 | 110.9 | 111.2 | 111.6 | 112.1 | 112.5 | 113 | 113.5 | 114 | 114.6
x1 = 0.1342 | 133.5 | 134 | 134.5 | 135 | 135.6 | 136.2 | 136.8 | 137.4 | 138.1
x1 = 0.2127 | 159.4 | 160 | 160.7 | 161.4 | 162.1 | 162.9 | 163.7 | 164.5 | 165.3
x1 = 0.2732 | 179.6 | 180.3 | 181.1 | 181.8 | 182.7 | 183.6 | 184.5 | 185.5 | 186.6
x1 = 0.3828 | 216.5 | 217.5 | 218.5 | 219.6 | 220.7 | 221.8 | 223 | 224.2 | 225.5
x1 = 0.5367 | 268.5 | 269.8 | 271.2 | 272.6 | 274 | 275.6 | 277.2 | 278.8 | 280.5
x1 = 0.7064 | 326.1 | 327.7 | 329.4 | 331.2 | 333.1 | 335.1 | 337.1 | 339.2 | 341.4
x1 = 0.8344 | 369.2 | 371.2 | 373.2 | 375.3 | 377.4 | 379.7 | 382 | 384.5 | 387
x1 = 1 | 425 | 427.2 | 429.6 | 432 | 434.6 | 437.2 | 440 | 442.9 | 445.8
